This is an account of results in ChEMBL document CHEMBL5729440, “Compounds and methods for treating oxalate-related diseases” (2022).

By IC50 is commonly meant the concentration that gives 50% inhibition.

The target in the experiment is T1, 2-Hydroxyacid oxidase 1 (Homo sapiens, UniProt Q9UJM8).
T1 sequence (Q9UJM8 whole entry): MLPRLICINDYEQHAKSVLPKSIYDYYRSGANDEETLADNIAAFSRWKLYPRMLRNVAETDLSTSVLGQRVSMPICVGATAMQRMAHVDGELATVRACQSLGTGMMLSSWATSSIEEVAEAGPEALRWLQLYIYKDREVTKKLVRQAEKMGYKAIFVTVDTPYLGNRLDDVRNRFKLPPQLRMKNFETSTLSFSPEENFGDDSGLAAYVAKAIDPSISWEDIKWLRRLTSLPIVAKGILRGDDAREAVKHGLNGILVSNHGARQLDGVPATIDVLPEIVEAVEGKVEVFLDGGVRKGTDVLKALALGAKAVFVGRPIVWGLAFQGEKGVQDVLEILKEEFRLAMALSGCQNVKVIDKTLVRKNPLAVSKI
Briefly: In-Vitro Human Glycolate Oxidase (hGOX) Assay: The in-vitro glycolate oxidase assay was performed using recombinant full-length human hydroxyacid oxidase 1 (HAO1), the equivalents of hGOX. The enzyme was obtained from AbCam (Catalog #ab113144) and was purified using conventional chromatography to >95% purity. Purified HAO1 was dissolved in assay buffer consisting of 10 mM NaCl, 110 mM KCl, 2 mM MgCl2, 50 mM HEPES (pH 7.4), and 0.01% Triton™ X-100. The assay used Corning 3575 384-well flat bottom, low flange, non-binding surface, black polystyrene plates.Test compounds in DMSO were preincubated at different concentrations with purified recombinant human GO (6 nM) for 10 min, followed by the addition of glycolate substrate (85 μM) to start the reaction. The plates were incubated for 10 min at room temperature, at which point Amplex red reagent (50 μM) was added.The fluorescence intensity signal was measured on a VariosKan LUX instrument using an excitation of 560 nm and an emission of 590 nm. The IC50 values were calculated using Graphpad Prism.

SMILES strings stand for the structures.

Regarding `CC(C)CC#Cc1cccc(S(=O)(=O)c2[nH]nnc2C(=O)O)c1`, the IC50 is 4.7 µM.
